Source: patent US5824647A, “Chemotactic wound healing peptides” (priority 1995, dated 1998)

Experiments:
[1] = system: fibroblasts, monocytes and neutrophils; assay: Chemotaxis assays expressed as Migration Index (cell type not separated); type: cell-based, human; conditions: cells migrating in response to peptide divided by cells migrating in response to medium; positive chemotactic control
Description: The peptides of the invention induce chemotaxis of fibroblasts and inflammatory cells (neutrophils and monocytes/macro-phages) in in vitro assays. Assays for measuring chemotaxis induced by the peptides can utilize either fibroblasts or monocytes. The following sets forth a representative assay for measuring fibroblast chemotaxis induced by the peptides of the invention:
Peptides 280-293, 296-322, 328-354, 358-382 (SEQ ID NO. 16), 366-387 (SEQ ID NO. 11), 364-378 (SEQ ID NO. 6) and 368-374 (SEQ ID NO. 1) of Table I, whose sequences correspond to the designated regions of TGF-β1 were tested in chemotaxis assays for the ability to induce migration of fibroblasts, monocytes and neutrophils. The peptides were added to the lower compartments of modified Boyden chambers at the indicated concentration.
Because the peptides were tested in different experiments, migration was expressed as "Migration Index" which is obtained by dividing the number of cells migrating in response to medium into the number of cells migrating in response to each peptide. A positive chemotactic control, peptide 340-391 gave migration indices between 7-11.

[2] = system: infant foreskin fibroblasts; assay: Fibroblast proliferation, [3H]thymidine incorporation; type: cell-based; conditions: [3H]thymidine pulse after 72 h, harvest 24 h later; positive control human recombinant TGF-β1 (25 ng/ml)
Experimental: The peptides of the invention were also found to induce fibroblast proliferation in vitro. Fibroblast proliferation was measured in low passaged (fewer than 8) fibroblast cultures. Fibroblasts were added at low density (20,000 cells/well) to Falcon 3047 multiwell plates in maintenance medium. After incubation at 37° C. in a humidified atmosphere containing 5% CO2 for 16 h, the medium was removed from each well and replaced with 450 μl serum-free maintenance medium containing 0.1% BSA and 50 μl aliquots of sterilized test sample. Each sample being tested for mitogenic activity was added to triplicate wells. […] After 15 min. of repeated agitation of each multi-well plate, a 250 μl aliquot from each well was transferred to scintillation vials containing Bio-Safe II (Research Products International Corp., Mt. Prospect, Ill.), cooled for 4 h, and counted in a scintillation counter. Fibroblast proliferation was expressed as "Mean CPM±SEM" per well of the replicates. […]
Fibroblast proliferation experiments in response to the 7-mer peptides (peptides 368-374) were carried out as generally described above. […] All cultures were performed in triplicate and results were expressed as the means of triplicate values as counts per minute (CPM) per well. […]

340-391: synthetic peptide corresponding to sequence 340-391 of TGF-β1; positive chemotactic control (VLALYNQHNPGASAAPCCVPQALEPLPIVYYVGRKPKVEQLSNMIVRSCKCS; printed: Val Leu Ala Leu Tyr Asn Gln His Asn Pro Gly Ala Ser Ala Ala Pro Cys Cys Val Pro Gln Ala Leu Glu Pro Leu Pro Ile Val Tyr Tyr Val Gly Arg Lys Pro Lys Val Glu Gln Leu Ser Asn Met Ile Val Arg Ser Cys Lys Cys Ser) [Peptide 340-391]
Migration Index [1]: 7-11

VYYVGRK [Peptide 368-374, 7-mer corresponding to amino acids 368-374 of TGF-β1]
fibroblast proliferation / growth (in words) [2]: most effective in inducing fibroblast growth, exceeding that obtained with human recombinant TGF-β1
